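These data come from cells grown in 96-well plates and exposed to compound for 48 hours at five concentrations. TGI: concentration producing complete growth inhibition.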
system: MALME-3M melanoma; experiment: NCI anticancer screen, dose series, 48 h

`O/N=C1/COC(C(F)(F)F)(C(F)(F)F)C1` and `CCOC(=O)C1=C(C)N(C)C23OC4(C(=O)OC)CC2c2ccccc2C1N3C4=O` (stereo unspecified) cannot be ordered by TGI: greater than 100 µM for the first, greater than 100 µM for the second.

Going from `CNn1c(-c2ccccc2)n[nH]c1=O` to `NS(=O)(=O)c1nn2c(Br)c(-c3ccccc3)nc2s1`, the TGI falls from greater than 100 µM to 13.7 µM.

Going from `CS(=O)(=O)Nc1ccc(N2Cc3cnc4ccc5[nH]ccc2c5c34)cc1` to `Cc1nc2ccccc2c(=O)n1NC(=O)c1ccc(CS)cc1`, the TGI rises from 19.1 µM to 69.9 µM (3.7-fold).

First: CC(C)(C)OC(=O)NCC(O)CNC(=O)OC(C)(C)C
Second: CC(=O)OCc1cc(CCC(=O)NCCNc2c3ccccc3nc3ccccc23)cc(COC(C)=O)c1O[Si](C)(C)C(C)(C)C
The TGI of the first is higher: greater than 100 µM for the first, 25.6 µM for the second.

`CCc1nc(N)nc(N)c1-c1ccc(Cl)c(Cl)c1` and `COc1nc(C(=O)NNC(=O)c2nc(OC)c3ccccc3c2-c2ccccc2)c(-c2ccccc2)c2ccccc12` cannot be ordered by TGI: greater than 100 µM for the first, greater than 100 µM for the second.

Going from `CC1=C(C#N)C(C#N)(C#N)C(NN(C)C)C1` (stereo unspecified) to `CC(=O)NC1C(OCc2ccccc2)OC(CO)C(O)C1OC(C)C(=O)NC(C)C(=O)NC(CCC(=O)NCCCNc1c2ccccc2nc2cccc([N+](=O)[O-])c12)C(N)=O` (stereo unspecified), the TGI falls from 98.2 µM to 7.61 µM (13-fold).

system: MDA-N; experiment: NCI anticancer screen, dose series, 48 h

Compared with `CC(=O)Nc1cc(C(=O)Nc2cc(C(=O)N3CC(CCl)c4c3cc(N)c3ccccc43)nn2C)nn1C` (stereo unspecified), `CC(=O)OCc1cc(CCC(=O)NCCNc2c3ccccc3nc3ccccc23)cc(COC(C)=O)c1O[Si](C)(C)C(C)(C)C` is 56-fold higher in TGI: 0.389 µM for the first, 21.9 µM for the second.

`NC(Cc1cccc([N+](=O)[O-])c1)C(=O)O` (stereo unspecified) and `O=C(O)/C=N\Nc1nc2ccccc2[nH]1` cannot be ordered by TGI: greater than 100 µM for the first, greater than 100 µM for the second.

`Clc1c(Cl)c(Cl)c2nn(C3CCCO3)nc2c1Cl` (stereo unspecified) and `CC(=O)OCCn1cnc2nc(Nc3ccccc3)nc(Cl)c21` cannot be ordered by TGI: greater than 100 µM for the first, greater than 100 µM for the second.

First: O=C1OC[C@@H]2Cc3cc4c(cc3[C@H](c3ccc5c(c3)OCO5)[C@@H]12)OCO4
Second: CCOC(=O)C1=C(C)N(C)C23OC4(C(=O)OC)CC2c2ccccc2C1N3C4=O (stereo unspecified)
The TGI of the first is lower: 21.6 µM for the first, greater than 100 µM for the second.

`N#C/C(C(=O)Nc1ccccc1)=C(/N)N1CCOCC1` and `CNn1c(-c2ccccc2)n[nH]c1=O` cannot be ordered by TGI: greater than 100 µM for the first, greater than 100 µM for the second.

Going from `CS(=O)(=O)Nc1ccc(N2Cc3cnc4ccc5[nH]ccc2c5c34)cc1` to `Cc1ccc(/C=N/n2c(=O)[nH]c3ccccc3c2=O)cc1`, the TGI rises from 29.3 µM to greater than 100 µM.

`CC1=C(C#N)C(C#N)(C#N)C(NN(C)C)C1` (stereo unspecified) and `c1ccc2sc(C3(N4CCCC4)CCCCCC3)cc2c1` are within 1.5-fold of each other in TGI: 21.9 µM for the first, 32.1 µM for the second.

Compound `CC(=O)NC1C(OCc2ccccc2)OC(CO)C(O)C1OC(C)C(=O)NC(C)C(=O)NC(CCC(=O)NCCCNc1c2ccccc2nc2cccc([N+](=O)[O-])c12)C(N)=O` (stereo unspecified) has a TGI of 2.77 µM.

system: NCI-H226 lung; experiment: NCI anticancer screen, dose series, 48 h

`NC(Cc1cccc([N+](=O)[O-])c1)C(=O)O` (stereo unspecified) and `O=C(O)/C=N\Nc1nc2ccccc2[nH]1` cannot be ordered by TGI: greater than 100 µM for the first, greater than 100 µM for the second.

Going from `CCCCCN=Cc1c(O)c(O)c(C(C)C)c2cc(C)c(-c3c(C)cc4c(C(C)C)c(O)c(O)c(C=NCCCCC)c4c3O)c(O)c12` to `CC(=O)OCc1cc(CCC(=O)NCCNc2c3ccccc3nc3ccccc23)cc(COC(C)=O)c1O[Si](C)(C)C(C)(C)C`, the TGI falls from 88.4 µM to 4.72 µM (19-fold).

`Clc1c(Cl)c(Cl)c2nn(C3CCCO3)nc2c1Cl` (stereo unspecified) and `CC(=O)OCCn1cnc2nc(Nc3ccccc3)nc(Cl)c21` cannot be ordered by TGI: greater than 100 µM for the first, greater than 100 µM for the second.

`N#C/C(C(=O)Nc1ccccc1)=C(/N)N1CCOCC1` and `CNn1c(-c2ccccc2)n[nH]c1=O` cannot be ordered by TGI: greater than 100 µM for the first, greater than 100 µM for the second.

`O/N=C1/COC(C(F)(F)F)(C(F)(F)F)C1` and `CCOC(=O)C1=C(C)N(C)C23OC4(C(=O)OC)CC2c2ccccc2C1N3C4=O` (stereo unspecified) cannot be ordered by TGI: greater than 100 µM for the first, greater than 100 µM for the second.

First: CS(=O)(=O)Nc1ccc(N2Cc3cnc4ccc5[nH]ccc2c5c34)cc1
Second: Cc1nc2ccccc2c(=O)n1NC(=O)c1ccc(CS)cc1
The TGI of the first is 3-fold higher: 42.2 µM for the first, 14.2 µM for the second.

Going from `CC(C)(C)OC(=O)NCC(O)CNC(=O)OC(C)(C)C` to `CC(=O)NC1C(OCc2ccccc2)OC(CO)C(O)C1OC(C)C(=O)NC(C)C(=O)NC(CCC(=O)NCCCNc1c2ccccc2nc2cccc([N+](=O)[O-])c12)C(N)=O` (stereo unspecified), the TGI falls from greater than 100 µM to 11.2 µM.

Going from `NS(=O)(=O)c1nn2c(Br)c(-c3ccccc3)nc2s1` to `Cc1ccc(/C=N/n2c(=O)[nH]c3ccccc3c2=O)cc1`, the TGI rises from 4.6 µM to greater than 100 µM.

Compared with `COc1nc(C(=O)NNC(=O)c2nc(OC)c3ccccc3c2-c2ccccc2)c(-c2ccccc2)c2ccccc12`, `c1ccc2sc(C3(N4CCCC4)CCCCCC3)cc2c1` is lower in TGI: greater than 100 µM for the first, 40.3 µM for the second.

system: NCI-H522 lung; experiment: NCI anticancer screen, dose series, 48 h

Going from `CC(=O)Nc1cc(C(=O)Nc2cc(C(=O)N3CC(CCl)c4c3cc(N)c3ccccc43)nn2C)nn1C` (stereo unspecified) to `CC(=O)OCc1cc(CCC(=O)NCCNc2c3ccccc3nc3ccccc23)cc(COC(C)=O)c1O[Si](C)(C)C(C)(C)C`, the TGI rises from 0.0181 µM to 21.8 µM (1200-fold).

`NC(Cc1cccc([N+](=O)[O-])c1)C(=O)O` (stereo unspecified) and `O=C(O)/C=N\Nc1nc2ccccc2[nH]1` cannot be ordered by TGI: greater than 100 µM for the first, greater than 100 µM for the second.

Going from `CCCCCN=Cc1c(O)c(O)c(C(C)C)c2cc(C)c(-c3c(C)cc4c(C(C)C)c(O)c(O)c(C=NCCCCC)c4c3O)c(O)c12` to `CC(=O)NC1C(OCc2ccccc2)OC(CO)C(O)C1OC(C)C(=O)NC(C)C(=O)NC(CCC(=O)NCCCNc1c2ccccc2nc2cccc([N+](=O)[O-])c12)C(N)=O` (stereo unspecified), the TGI falls from 25.2 µM to 4.05 µM (6.2-fold).

`Clc1c(Cl)c(Cl)c2nn(C3CCCO3)nc2c1Cl` (stereo unspecified) and `CCc1nc(N)nc(N)c1-c1ccc(Cl)c(Cl)c1` cannot be ordered by TGI: greater than 100 µM for the first, greater than 100 µM for the second.

First: CC(=O)OCCn1cnc2nc(Nc3ccccc3)nc(Cl)c21
Second: NS(=O)(=O)c1nn2c(Br)c(-c3ccccc3)nc2s1
The TGI of the first is higher: greater than 100 µM for the first, 3.55 µM for the second.

`O/N=C1/COC(C(F)(F)F)(C(F)(F)F)C1` and `CCOC(=O)C1=C(C)N(C)C23OC4(C(=O)OC)CC2c2ccccc2C1N3C4=O` (stereo unspecified) cannot be ordered by TGI: greater than 100 µM for the first, greater than 100 µM for the second.

Compared with `CNn1c(-c2ccccc2)n[nH]c1=O`, `Cc1nc2ccccc2c(=O)n1NC(=O)c1ccc(CS)cc1` is lower in TGI: greater than 100 µM for the first, 27 µM for the second.

Compared with `CS(=O)(=O)Nc1ccc(N2Cc3cnc4ccc5[nH]ccc2c5c34)cc1`, `COc1nc(C(=O)NNC(=O)c2nc(OC)c3ccccc3c2-c2ccccc2)c(-c2ccccc2)c2ccccc12` is higher in TGI: 29.5 µM for the first, greater than 100 µM for the second.

First: CC(C)(C)OC(=O)NCC(O)CNC(=O)OC(C)(C)C
Second: CC1=C(C#N)C(C#N)(C#N)C(NN(C)C)C1 (stereo unspecified)
The TGI of the first is higher: greater than 100 µM for the first, 24.8 µM for the second.

`c1ccc2sc(C3(N4CCCC4)CCCCCC3)cc2c1` was tested, and the TGI was 33.3 µM.

system: OVCAR-4 ovarian; experiment: NCI anticancer screen, dose series, 48 h

Going from `CC(=O)Nc1cc(C(=O)Nc2cc(C(=O)N3CC(CCl)c4c3cc(N)c3ccccc43)nn2C)nn1C` (stereo unspecified) to `CC(=O)OCc1cc(CCC(=O)NCCNc2c3ccccc3nc3ccccc23)cc(COC(C)=O)c1O[Si](C)(C)C(C)(C)C`, the TGI rises from 0.677 µM to 21.1 µM (31-fold).

`NC(Cc1cccc([N+](=O)[O-])c1)C(=O)O` (stereo unspecified) and `O=C(O)/C=N\Nc1nc2ccccc2[nH]1` cannot be ordered by TGI: greater than 100 µM for the first, greater than 100 µM for the second.

First: CC(=O)OCCn1cnc2nc(Nc3ccccc3)nc(Cl)c21
Second: NS(=O)(=O)c1nn2c(Br)c(-c3ccccc3)nc2s1
The TGI of the first is higher: greater than 100 µM for the first, 24.4 µM for the second.

`O=C1OC[C@@H]2Cc3cc4c(cc3[C@H](c3ccc5c(c3)OCO5)[C@@H]12)OCO4` and `CCOC(=O)C1=C(C)N(C)C23OC4(C(=O)OC)CC2c2ccccc2C1N3C4=O` (stereo unspecified) cannot be ordered by TGI: greater than 25 µM for the first, greater than 100 µM for the second.

`O/N=C1/COC(C(F)(F)F)(C(F)(F)F)C1` and `CC1=C(C#N)C(C#N)(C#N)C(NN(C)C)C1` (stereo unspecified) cannot be ordered by TGI: greater than 100 µM for the first, greater than 100 µM for the second.

`CNn1c(-c2ccccc2)n[nH]c1=O` and `Cc1nc2ccccc2c(=O)n1NC(=O)c1ccc(CS)cc1` cannot be ordered by TGI: greater than 100 µM for the first, greater than 100 µM for the second.

Compared with `CS(=O)(=O)Nc1ccc(N2Cc3cnc4ccc5[nH]ccc2c5c34)cc1`, `COc1nc(C(=O)NNC(=O)c2nc(OC)c3ccccc3c2-c2ccccc2)c(-c2ccccc2)c2ccccc12` is higher in TGI: 46.6 µM for the first, greater than 100 µM for the second.

`CC(C)(C)OC(=O)NCC(O)CNC(=O)OC(C)(C)C` and `CC(=O)NC1C(OCc2ccccc2)OC(CO)C(O)C1OC(C)C(=O)NC(C)C(=O)NC(CCC(=O)NCCCNc1c2ccccc2nc2cccc([N+](=O)[O-])c12)C(N)=O` (stereo unspecified) cannot be ordered by TGI: greater than 100 µM for the first, greater than 100 µM for the second.

Going from `CCc1nc(N)nc(N)c1-c1ccc(Cl)c(Cl)c1` to `c1ccc2sc(C3(N4CCCC4)CCCCCC3)cc2c1`, the TGI falls from greater than 100 µM to 31.8 µM.

system: OVCAR-5 ovarian; experiment: NCI anticancer screen, dose series, 48 h

Going from `CC(=O)Nc1cc(C(=O)Nc2cc(C(=O)N3CC(CCl)c4c3cc(N)c3ccccc43)nn2C)nn1C` (stereo unspecified) to `CC(=O)OCCn1cnc2nc(Nc3ccccc3)nc(Cl)c21`, the TGI rises from 17.3 µM to greater than 100 µM.

`NC(Cc1cccc([N+](=O)[O-])c1)C(=O)O` (stereo unspecified) and `O=C(O)/C=N\Nc1nc2ccccc2[nH]1` cannot be ordered by TGI: greater than 100 µM for the first, greater than 100 µM for the second.

`CCCCCN=Cc1c(O)c(O)c(C(C)C)c2cc(C)c(-c3c(C)cc4c(C(C)C)c(O)c(O)c(C=NCCCCC)c4c3O)c(O)c12` and `O=C1OC[C@@H]2Cc3cc4c(cc3[C@H](c3ccc5c(c3)OCO5)[C@@H]12)OCO4` cannot be ordered by TGI: greater than 100 µM for the first, greater than 25 µM for the second.

`Clc1c(Cl)c(Cl)c2nn(C3CCCO3)nc2c1Cl` (stereo unspecified) and `N#C/C(C(=O)Nc1ccccc1)=C(/N)N1CCOCC1` cannot be ordered by TGI: greater than 100 µM for the first, greater than 100 µM for the second.

`O/N=C1/COC(C(F)(F)F)(C(F)(F)F)C1` was tested, and the TGI was greater than 100 µM.

— PubChem BioAssay (NCI)
